In experiment [1] the target is T1, full length MALT1 enzyme (Homo sapiens, UniProt Q9UDY8).
T1 construct: a fluorescence based assay with full length MALT1 enzyme
T1 sequence (Q9UDY8 1-824): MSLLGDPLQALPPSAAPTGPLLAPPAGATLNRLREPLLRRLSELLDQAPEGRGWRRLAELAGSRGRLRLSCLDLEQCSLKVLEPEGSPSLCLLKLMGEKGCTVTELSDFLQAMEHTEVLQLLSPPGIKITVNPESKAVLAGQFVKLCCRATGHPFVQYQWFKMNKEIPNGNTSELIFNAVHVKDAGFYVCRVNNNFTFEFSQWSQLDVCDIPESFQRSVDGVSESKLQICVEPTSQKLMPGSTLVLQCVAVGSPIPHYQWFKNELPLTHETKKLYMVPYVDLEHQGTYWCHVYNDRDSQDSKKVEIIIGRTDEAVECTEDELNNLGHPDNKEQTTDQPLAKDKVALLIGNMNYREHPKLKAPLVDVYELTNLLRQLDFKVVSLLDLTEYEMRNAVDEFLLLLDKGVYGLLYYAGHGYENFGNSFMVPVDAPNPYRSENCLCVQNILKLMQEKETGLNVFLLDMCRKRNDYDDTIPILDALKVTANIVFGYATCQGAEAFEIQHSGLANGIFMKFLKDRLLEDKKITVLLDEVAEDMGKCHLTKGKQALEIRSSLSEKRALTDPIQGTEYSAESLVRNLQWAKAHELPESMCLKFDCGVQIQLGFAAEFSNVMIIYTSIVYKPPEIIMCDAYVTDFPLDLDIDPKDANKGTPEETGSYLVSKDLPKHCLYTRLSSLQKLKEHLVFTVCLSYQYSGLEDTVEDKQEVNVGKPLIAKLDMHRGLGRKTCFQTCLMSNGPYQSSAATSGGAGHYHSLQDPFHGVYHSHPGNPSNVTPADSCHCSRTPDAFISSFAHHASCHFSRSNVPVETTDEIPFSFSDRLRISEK
The experiment can be described thus: MALT1 biochemical assay (fluorescence based, Ac-Leu-Arg-Ser-Arg-AMC cleavage). The note with it: full length MALT1 protein, 2 h pre-incubation at RT, tetrapeptide substrate Ac-Leu-Arg-Ser-Arg-AMC, read-out: Malt 1 inhibition IC50. In a few lines:
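Full-length MALT1 (100-300 ng/well) was pre-incubated with compound for 2 h at RT, then 100 μM Ac-LRSR-AMC was added for 4-12 h. Buffer was 50 mM MES, 150 mM NaCl, 0.1% CHAPS, 1 M ammonium citrate, 10 mM DTT, pH 7, with 0.5% DMSO. IC50 was derived from AMC fluorescence (ex 360/em 460 nm).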

Experiment [2] has as its system NF-kB transcriptional activity in HEK-293-NF-kB-Luc cell line overexpressing MALT1. The experiment can be described thus: NF-kB reporter assay (luciferase, MALT1 stably overexpressed). In kind it is cell-based. To be noted: Homo sapiens, 24 h, HEK-293-NF-kB-Luc cells stably overexpressing MALT1, 24 h treatment, Bright Glo luminescence; read-out: NF-kB inhibition IC50. The gist of the method: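 HEK-293-NF-κB-Luc cells stably overexpressing MALT1 were seeded overnight, then exposed to test compounds for 24 h. Bright Glo added 10 min at ambient temperature and luminescence read; % inhibition calculated against 0.1% DMSO controls.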

The subject of experiment [3] is OCI-Ly-10 cells. The experiment can be described thus: Anticancer assay (14 days), cell viability by CCK-8. In kind it is cell-based. To be noted: Homo sapiens, OCI-Ly10, 336 h, 14 days treatment, fresh treatment every 5th day, CCK-8 viability, read-out: Ly-10 (14d) inhibition IC50. Here is the method:
OCI-Ly-10 cells (UHN, Canada) seeded in culture media (IMDM+20% FBS) in 96-well plates were treated with various concentrations of the test compounds. Cells were treated for a period of 14 days (13-15 days depending on the confluency of cells) with fresh treatments every 5th day. After the first treatment, for all subsequent treatments, the cells were centrifuged, the spent media was removed and fresh media containing the test compound was added. Cell viability was assessed using CCK-8 kit (Dojindo Laboratories, China) as per manufacturer's instructions. Plates were read in colorimeter and absorbance was detected. (Detection at 450 nm; Background correction at 650 nm). % inhibition was calculated relative to the samples containing media with 0.1% DMSO alone as per the following formula

On to `CCOC(C)c1c(NC(=O)Nc2cnc(OC)c(Cl)c2)cnc2sc(C)nc12` (racemic) [Compound 162, 1-(5-Chloro-6-methoxypyridin-3-yl)-3-(7-(1-ethoxyethyl)-2-methylthiazolo[5,4-b]pyridin-6-yl)urea], for which the IC50 (commonly the point on the concentration scale where inhibition reaches its midpoint) in experiment [1] was 1 to 50 nM; in experiment [2], 1 to 100 nM; in experiment [3], 501 to 1500 nM.

For the compound `COC(c1c(NC(=O)Nc2cnc(-n3nccn3)c(Cl)c2)cnc2sc(C)nc12)C(C)(C)C` (single isomer, unassigned) [Compound 56b, 1-(5-chloro-6-(2H-1,2,3-triazol-2-yl)pyridin-3-yl)-3-(7-(1-methoxy-2,2-dimethylpropyl)-2-methylthiazolo[5,4-b]pyridin-6-yl)urea], the values for the half-inhibitory concentration (IC50) in experiment [1] and in experiment [3] were 1 to 50 nM and 26 to 100 nM, respectively.

Regarding `COC(c1c(NC(=O)Nc2cnc(-n3nccn3)c(C(F)(F)F)c2)cnc2sc(C)nc12)C(C)(C)C` (single isomer, unassigned) [Compound 57b, 1-(6-(2H-1,2,3-Triazol-2-yl)-5-(trifluoromethyl)pyridin-3-yl)-3-(7-(1-methoxy-2,2-dimethylpropyl)-2-methylthiazolo[5,4-b]pyridin-6-yl)urea], the IC50 in experiment [1] was in the range of 1 to 50 nM; in experiment [2] it was 1 to 100 nM; in experiment [3] it was 26 to 100 nM.

As to `CCC(c1c(NC(=O)Nc2cnc(-n3nccn3)c(C(F)(F)F)c2)cnc2sc(C)nc12)N(C)C` (single isomer, unassigned) [Compound 75b, 1-(6-(2H-1,2,3-Triazol-2-yl)-5-(trifluoromethyl)pyridin-3-yl)-3-(7-(1-(dimethylamino)propyl)-2-methylthiazolo[5,4-b]pyridin-6-yl)urea], the IC50 in experiment [1] is 51 to 100 nM; in experiment [2], 1 to 100 nM; in experiment [3] it was 26 to 100 nM.

In the case of `Cc1nc2c(C(C3CC3)N(C)C)c(NC(=O)Nc3cnc(-n4nccn4)c(C(F)(F)F)c3)cnc2s1` (single isomer, unassigned) [Compound 76b, 1-(6-(2H-1,2,3-Triazol-2-yl)-5-(trifluoromethyl)pyridin-3-yl)-3-(7-(cyclopropyl(dimethylamino)methyl)-2-methylthiazolo[5,4-b]pyridin-6-yl)urea], the IC50 in experiment [1] lay within 1 to 50 nM; in experiment [2], 1 to 100 nM; in experiment [3] it was 0.1 to 25 nM.

With `COC(c1c(NC(=O)Nc2cnc(-n3nccn3)c(Cl)c2)cnc2sc(C)nc12)C(C)C` (single isomer, unassigned) [Compound 79b, 1-(5-Chloro-6-(2H-1,2,3-triazol-2-yl)pyridin-3-yl)-3-(7-(1-methoxy-2-methylpropyl)-2-methylthiazolo[5,4-b]pyridin-6-yl)urea], the IC50 in experiment [1] was in the range of 1 to 50 nM; in experiment [2], 1 to 100 nM; in experiment [3] it was 26 to 100 nM.

For the compound `COc1nc(-n2nccn2)c(C(F)(F)F)cc1NC(=O)Nc1cnc2sc(C)nc2c1C(OC)C(C)C` (single isomer, unassigned) [Compound 80b, 1-(7-(1-Methoxy-2-methylpropyl)-2-methylthiazolo[5,4-b]pyridin-6-yl)-3-(2-methoxy-6-(2H-1,2,3-triazol-2-yl)-5-(trifluoromethyl)pyridin-3-yl)urea], the results for the IC50 in experiment [1], in experiment [2] and in experiment [3] were 1 to 50 nM, 1 to 100 nM and 26 to 100 nM, respectively.

Take `COc1nc(-n2nccn2)c(Cl)cc1NC(=O)Nc1cnc2sc(C)nc2c1C(OC)C(C)C` (single isomer, unassigned) [Compound 81b, 1-(5-Chloro-2-methoxy-6-(2H-1,2,3-triazol-2-yl)pyridin-3-yl)-3-(7-(1-methoxy-2-methylpropyl)-2-methylthiazolo[5,4-b]pyridin-6-yl)urea]: the IC50 in experiment [1] lay within 1 to 50 nM; in experiment [2], 1 to 100 nM; in experiment [3], 26 to 100 nM.

Consider `COC(c1ccc(F)cc1)c1c(NC(=O)Nc2cnc(-n3nccn3)c(C(F)(F)F)c2)cnc2sc(C)nc12` (single isomer, unassigned) [Compound 85a, 1-(6-(2H-1,2,3-Triazol-2-yl)-5-(trifluoromethyl)pyridin-3-yl)-3-(7-((4-fluorophenyl)(methoxy)methyl)-2-methylthiazolo[5,4-b]pyridin-6-yl)urea], for which the IC50 in experiment [1] is 1 to 50 nM; in experiment [2] it was 1 to 100 nM; in experiment [3], 101 to 250 nM.

As to `COc1ccc(Cl)cc1NC(=O)Nc1cnc2sc(C)nc2c1C(C)OC` (single isomer, unassigned) [Compound 128b, 1-(5-Chloro-2-methoxyphenyl)-3-(7-(1-methoxyethyl)-2-methylthiazolo[5,4-b]pyridin-6-yl)urea], the IC50 in experiment [1] was 51 to 100 nM; in experiment [3] it was 26 to 100 nM.

In the case of `COc1cc(-n2nccn2)c(Cl)cc1NC(=O)Nc1cnc2sc(C)nc2c1C(C)OC` (single isomer, unassigned) [Compound 131b, 1-(5-Chloro-2-methoxy-4-(2H-1,2,3-triazol-2-yl)phenyl)-3-(7-(1-methoxyethyl)-2-methylthiazolo[5,4-b]pyridin-6-yl)urea], the figures for the IC50 in experiment [1] and in experiment [3] were 1 to 50 nM and 0.1 to 25 nM, respectively.

On to `CCC(OC)c1c(NC(=O)Nc2cnc(-n3nccn3)c(C(F)(F)F)c2)cnc2sc(C)nc12` (single isomer, unassigned) [Compound 146b, 1-(6-(2H-1,2,3-Triazol-2-yl)-5-(trifluoromethyl)pyridin-3-yl)-3-(7-(1-methoxypropyl)-2-methylthiazolo[5,4-b]pyridin-6-yl)urea], for which the results for the half-maximal inhibitory concentration (IC50) in experiment [1] and in experiment [3] were 1 to 50 nM and 0.1 to 25 nM, respectively.

Regarding `COC(c1c(NC(=O)Nc2cnc(-n3nccn3)c(C(F)(F)F)c2)cnc2sc(C)nc12)C1CC1` (single isomer, unassigned) [Compound 151b, 1-(6-(2H-1,2,3-Triazol-2-yl)-5-(trifluoromethyl)pyridin-3-yl)-3-(7-(cyclopropyl(methoxy)methyl)-2-methylthiazolo[5,4-b]pyridin-6-yl)urea], the results for the IC50 in experiment [1] and in experiment [3] were 1 to 50 nM and 0.1 to 25 nM, respectively.

For the compound `CCC(C)c1c(NC(=O)Nc2cnc(-n3nccn3)c(Cl)c2)cnc2sc(C)nc12` (single isomer, unassigned) [Compound 157b, 1-(7-(sec-Butyl)-2-methylthiazolo[5,4-b]pyridin-6-yl)-3-(5-chloro-6-(2H-1,2,3-triazol-2-yl)pyridin-3-yl)urea], the IC50 in experiment [1] was in the range of 1 to 50 nM; in experiment [3] it was 26 to 100 nM.

`COc1ncc(NC(=O)Nc2cnc3sc(C)nc3c2C(C)OC)cc1Cl` (single isomer, unassigned) [Compound 159a, 1-(5-Chloro-6-methoxypyridin-3-yl)-3-(7-(1-methoxyethyl)-2-methylthiazolo[5,4-b]pyridin-6-yl)urea]: the figures for the IC50 in experiment [1] and in experiment [3] were 1 to 50 nM and 26 to 100 nM, respectively.

As for `COC(C)c1c(NC(=O)Nc2cnc(-n3cccn3)c(Cl)c2)cnc2sc(C)nc12` (single isomer, unassigned) [Compound 196b, (S) or (R)-1-(5-chloro-6-(1H-pyrazol-1-yl)pyridin-3-yl)-3-(7-(1-methoxyethyl)-2-methylthiazolo[5,4-b]pyridin-6-yl)urea], the IC50 is 1 to 50 nM in experiment [1] and 26 to 100 nM in experiment [3].

Turning to `COC(C)c1c(NC(=O)Nc2ccc(-n3cccn3)c(Cl)c2)cnc2sc(C)nc12` (single isomer, unassigned) [Compound 201b, (S) or (R)-1-(3-Chloro-4-(1H-pyrazol-1-yl)phenyl)-3-(7-(1-methoxyethyl)-2-methylthiazolo[5,4-b]pyridin-6-yl)urea], the IC50 in experiment [1] was in the range of 1 to 50 nM; in experiment [3], 26 to 100 nM.

The values are drawn from patent US20190275012A9, “SUBSTITUTED THIAZOLO-PYRIDINE COMPOUNDS AS MALT1 INHIBITORS” (Lupin Limited, priority 2016, published 2019).
